In ChEMBL document CHEMBL6071205, “A New Frontier in Targeted Therapies: Harnessing PROTACs and Advanced Delivery Systems” (ACS Med Chem Lett, 2024):

Target: von Hippel-Lindau disease tumor suppressor/GTPase KRas (Homo sapiens, UniProt P01116+P40337, G12D)
Assay: PROTAC activity at VHL/KRAS G12D mutant in human ASPC1 cells assessed as induction of protein degradation incubated for 24 hrs by HiBiT based Nano-Glo luminescence assay
Format: cell-based

von Hippel-Lindau disease tumor suppressor/GTPase KRas, sequence (P01116 whole entry G12D, stated change not applied): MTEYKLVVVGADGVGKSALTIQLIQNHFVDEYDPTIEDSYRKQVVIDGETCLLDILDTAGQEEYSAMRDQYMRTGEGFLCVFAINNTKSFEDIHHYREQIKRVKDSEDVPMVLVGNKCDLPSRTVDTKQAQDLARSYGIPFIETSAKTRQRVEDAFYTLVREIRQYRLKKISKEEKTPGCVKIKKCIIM
von Hippel-Lindau disease tumor suppressor/GTPase KRas, sequence (P40337 whole entry, stated change not applied): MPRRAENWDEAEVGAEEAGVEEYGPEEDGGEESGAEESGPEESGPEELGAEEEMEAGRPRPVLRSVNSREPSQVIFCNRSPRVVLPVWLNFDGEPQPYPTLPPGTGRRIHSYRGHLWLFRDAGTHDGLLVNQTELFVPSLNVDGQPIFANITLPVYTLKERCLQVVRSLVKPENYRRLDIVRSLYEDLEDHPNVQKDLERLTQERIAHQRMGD

Row | SMILES | DC50
1 | C#Cc1c(F)ccc2cccc(-c3ncc4c(N5CC6CCC(C5)N6)nc(OC[C@@]56CCCN5[C@H](COC(=O)N5CCC7(CCC(CCc8ccc9c(c8)n(C)c(=O)n9C8CCC(=O)NC8=O)CC7)CC5)CC6)nc4c3F)c12 (some centres not stated) | ≥ 0.1 µM
2 | C#Cc1c(F)ccc2cccc(-c3ncc4c(N5CC6CCC(C5)N6)nc(OC[C@@]56CCCN5[C@H](COC(=O)N5CC(CN7CCN(c8ccc9c(c8)n(C)c(=O)n9C8CCC(=O)NC8=O)CC7)C5)CC6)nc4c3F)c12 (some centres not stated) | ≤ 0.1 µM
3 | C#Cc1c(F)ccc2cc(O)cc(-c3ncc4c(N5CC6CCC(C5)N6)nc(OC[C@@]56CCCN5[C@H](COC(=O)N5CCC(OCc7ccc8c(c7)n(C)c(=O)n8C7CCC(=O)NC7=O)CC5)CC6)nc4c3F)c12 (some centres not stated) | ≥ 0.1 µM
4 | C#Cc1c(F)ccc2cccc(-c3ncc4c(N5CC6CCC(C5)N6)nc(OC[C@@]56CCCN5[C@H](COC(=O)N5CCC(OCCCCCCc7ccc8c(c7)n(C)c(=O)n8C7CCC(=O)NC7=O)CC5)CC6)nc4c3F)c12 (some centres not stated) | ≤ 0.1 µM
5 | C#Cc1c(F)ccc2cccc(-c3ncc4c(N5CC6CCC(C5)N6)nc(OC[C@@]56CCCN5[C@H](COC(=O)N5CCC(CC7CCN(Cc8ccc9c(c8)n(C)c(=O)n9C8CCC(=O)NC8=O)CC7)CC5)CC6)nc4c3F)c12 (some centres not stated) | ≤ 0.1 µM
6 | C#Cc1c(F)ccc2cccc(-c3ncc4c(N5CC6CCC(C5)N6)nc(OC[C@@]56CCCN5[C@H](COC(=O)N5CCC(OC7CCN(Cc8ccc9c(c8)n(C)c(=O)n9C8CCC(=O)NC8=O)CC7)CC5)CC6)nc4c3F)c12 (some centres not stated) | ≤ 0.1 µM
7 | C#Cc1c(F)ccc2cc(O)cc(-c3ncc4c(N5CC6CCC(C5)N6)nc(OC[C@@]56CCCN5[C@H](COC(=O)N5CCC(OCCCc7ccc8c(c7)n(C)c(=O)n8C7CCC(=O)NC7=O)CC5)CC6)nc4c3F)c12 (some centres not stated) | ≤ 0.1 µM
8 | C#Cc1c(F)ccc2cccc(-c3ncc4c(N5CC6CCC(C5)N6)nc(OC[C@@]56CCCN5[C@H](COC(=O)N5CCN(C7CCN(Cc8ccc9c(c8)n(C)c(=O)n9C8CCC(=O)NC8=O)CC7)CC5)CC6)nc4c3F)c12 (some centres not stated) | ≤ 0.1 µM
9 | C#Cc1c(F)ccc2cccc(-c3ncc4c(N5CC6CCC(C5)N6)nc(OC[C@@]56CCCN5[C@H](COC(=O)N5CCC(CN7CCC(c8ccc9c(c8)n(C)c(=O)n9C8CCC(=O)NC8=O)CC7)CC5)CC6)nc4c3F)c12 (some centres not stated) | ≤ 0.1 µM
10 | C#Cc1c(F)ccc2cccc(-c3ncc4c(N5CC6CCC(C5)N6)nc(OC[C@@]56CCCN5[C@H](COC(=O)N5CCC(OCCC#Cc7ccc8c(c7)n(C)c(=O)n8C7CCC(=O)NC7=O)CC5)CC6)nc4c3F)c12 (some centres not stated) | ≤ 0.1 µM
11 | C#Cc1c(F)ccc2cccc(-c3ncc4c(N5CC6CCC(C5)N6)nc(OC[C@@]56CCCN5[C@H](COC(=O)N5CCC(OCCCc7ccc8c(c7)n(C)c(=O)n8C7CCC(=O)NC7=O)CC5)CC6)nc4c3F)c12 (some centres not stated) | ≤ 0.1 µM
12 | C#Cc1c(F)ccc2cccc(-c3ncc4c(N5CC6CCC(C5)N6)nc(OC[C@@]56CCCN5[C@H](COC(=O)N5CCC(OC7CN(Cc8ccc9c(c8)n(C)c(=O)n9C8CCC(=O)NC8=O)C7)CC5)CC6)nc4c3F)c12 (some centres not stated) | ≤ 0.1 µM
